This is an account of results in paper PMC6002439, “Inhibitory influence of natural flavonoids on human protein kinase CK2 isoforms: effect of the regulatory subunit” (Molecular and Cellular Biochemistry, 2017).

The test system of assay [1] is CK2α′. The arrangement: method as in PMID 28043654. To be noted: 10 μM yeast P2B as substrate, 20 µM ATP; ref [23]; cited from earlier work.
Assay [2] has as its system CK2α. The arrangement: method as in PMID 28043654. To be noted: 50 μM synthetic peptide as substrate, 20 µM ATP; ref [23]; cited from earlier work.
In assay [3] the target is T1, CK2α′2β2 (Homo sapiens, UniProt P19784).
T1 construct: GST (N); made in house; host or cells: E. coli BL21(DE3)trxB
Briefly: CK2 activity, phosphorylation of synthetic peptide […], CK2α′2β2 holoenzyme. The assay is classed as biochemical. The conditions noted are these: 50 μM synthetic peptide as substrate, 20 µM ATP. On the procedure: (§1) CK2α2β2 and CK2α′2β2 holoenzymes were purified as described elsewhere. Briefly, both catalytic subunits were overexpressed as GST fusion proteins, whereas the regulatory subunit was expressed as His-tagged protein. E. coli BL21(DE3)trxB cells (Novagen) harboring the plasmid pGEX-3X::CSNK2A1, pGEX-3X::CSNK2A2 or pET28a::CSNK2B were grown until OD600 = 0.6 at 37 °C. Next, IPTG was added to the final concentration of 0.2 mM; cultures were continued at room temperature for 4 h and then centrifuged at 5000×g for 10 min. Obtained bacterial pellets were mixed prior to lysis. Cells were disrupted by sonication and the supernatant was purified using glutathione-Sepharose (Pharmacia Biotech). Fractions containing the CK2 holoenzyme were pooled and dialysed against 50 mM Tris/HCl buffer pH 7.5 supplemented with 6 mM β-mercaptoethanol and 30% glycerol. The obtained protein preparations were used in enzymatic assays.
(§2) CK2 activity was determined in a standard reaction mixture (40 μL of final volume) containing 20 mM Tris–HCl buffer, pH 7.5, 15 mM MgCl2, 6 mM β-mercaptoethanol, and 20 μM [γ-^32P]ATP (specific radioactivity 500–1000 cpm/pmol) in the presence of 10 μM yeast P2B as substrate. Incubation was performed at 37 °C for 15 min. Afterwards, the reaction was terminated by adding 7 μL of SDS-PAGE loading buffer. Reaction mixtures were resolved in SDS-PAGE followed by Coomassie blue staining and autoradiography. The phosphate incorporation level in the P2B protein was estimated by cutting off the corresponding band and measuring the radioactivity in a scintillation counter (Perkin-Elmer).
(§3) Phosphorylation of the peptide substrate (50 μM) was terminated by the addition of 10% orthophosphoric acid, and aliquots were spotted onto phosphocellulose filters (Whatmann P81). Filters were washed with 1% orthophosphoric acid three times and dried before counting in scintillation counter.

Assay [4] relates to CK2α′. The arrangement: method as in PMID 28043654. To be noted: 50 μM synthetic peptide as substrate, 20 µM ATP; ref [23]; cited from earlier work.
In assay [5] the test system is CK2α. The arrangement: method as in PMID 28043654. The conditions noted are these: 10 μM yeast P2B as substrate, 20 µM ATP; ref [23]; cited from earlier work.
In assay [6] the target is T1, CK2α′2β2. Briefly: CK2 activity, phosphorylation of yeast P2B protein substrate, CK2α′2β2 holoenzyme. The assay is classed as biochemical. The conditions noted are these: 10 μM yeast P2B as substrate, 20 µM ATP. The method, then: as §1, §2
Assay [7] has as its target T2, CK2α2β2 (Homo sapiens, UniProt P68400).
T2 construct: GST (N); made in house; host or cells: E. coli BL21(DE3)trxB
The assay can be described thus: CK2 activity, phosphorylation of yeast P2B protein substrate, CK2α2β2 holoenzyme. The conditions noted are these: 10 μM yeast P2B as substrate, 20 µM ATP. The assay is classed as biochemical. On the procedure:
as §1, §2

In assay [8] the target is T2, CK2α2β2. Briefly: CK2 activity, phosphorylation of synthetic peptide […], CK2α2β2 holoenzyme. To be noted: 50 μM synthetic peptide as substrate, 20 µM ATP. The assay is classed as biochemical. The method, then:
as §1, §2, §3

Assay [9] deals with CK2α′. The assay can be described thus: CK2 activity, phosphorylation of synthetic peptide […], free CK2α′. Format: biochemical, human. The conditions noted are these: synthetic peptide as substrate; CK2α′ vs CK2α′2β2. On the procedure:
as §2, §3

Like-named read-outs stand apart in the source and are kept apart here.

T1 sequence (P19784 whole entry): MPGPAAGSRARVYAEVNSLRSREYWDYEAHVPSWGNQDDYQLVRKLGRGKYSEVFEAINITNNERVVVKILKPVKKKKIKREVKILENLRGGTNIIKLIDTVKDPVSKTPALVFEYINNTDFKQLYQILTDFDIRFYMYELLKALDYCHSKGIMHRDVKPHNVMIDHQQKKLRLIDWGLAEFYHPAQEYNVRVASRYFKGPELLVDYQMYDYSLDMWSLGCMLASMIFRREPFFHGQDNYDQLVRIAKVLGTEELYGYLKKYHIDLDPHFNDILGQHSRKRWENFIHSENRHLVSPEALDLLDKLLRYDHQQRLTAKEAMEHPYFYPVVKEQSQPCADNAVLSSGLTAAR
T1 sequence (P67870 whole entry partner): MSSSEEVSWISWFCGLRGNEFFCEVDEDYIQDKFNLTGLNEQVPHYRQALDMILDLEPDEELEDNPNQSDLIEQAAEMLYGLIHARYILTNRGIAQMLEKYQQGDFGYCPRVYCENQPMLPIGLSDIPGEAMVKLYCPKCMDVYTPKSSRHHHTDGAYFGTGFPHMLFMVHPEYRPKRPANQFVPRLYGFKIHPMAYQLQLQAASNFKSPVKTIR
T2 sequence (P68400 whole entry): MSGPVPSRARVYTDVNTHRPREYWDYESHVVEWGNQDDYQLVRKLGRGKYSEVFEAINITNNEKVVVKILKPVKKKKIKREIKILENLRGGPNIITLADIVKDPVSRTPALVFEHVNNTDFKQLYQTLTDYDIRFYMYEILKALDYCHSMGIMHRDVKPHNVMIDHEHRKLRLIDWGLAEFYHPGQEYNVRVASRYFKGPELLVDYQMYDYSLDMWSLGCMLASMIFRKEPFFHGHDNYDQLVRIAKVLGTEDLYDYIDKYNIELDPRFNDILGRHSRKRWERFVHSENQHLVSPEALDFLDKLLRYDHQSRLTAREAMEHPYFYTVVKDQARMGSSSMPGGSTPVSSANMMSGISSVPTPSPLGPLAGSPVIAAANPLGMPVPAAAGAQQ
T2 sequence (P67870 whole entry partner): as the sequence (P67870 whole entry partner) above

`COc1c(-c2ccc(O)cc2)oc2cc(O)cc(O)c2c1=O` [Compound 6, isokaempferide]: the IC50 in the assay on CK2α′ [1] is 13.6 ± 0.9 µM; in the assay on CK2α [2] it was 11.2 ± 0.9 µM; against CK2α′2β2 [3] it was 10.2 ± 0.7 µM; in the assay with CK2α′ [4] it was 13.7 ± 1.1 µM; in the assay on CK2α [5] it was over 40 µM; against CK2α′2β2 [6], 12.1 ± 1.1 µM. Further, the IC50 at CK2α2β2 [7] is 17.5 ± 1.4 µM; against CK2α2β2 [8], 7.7 ± 0.4 µM.

`COc1c(-c2ccc(O)cc2)oc2cc(OC3OC(CO)C(O)C(O)C3O)cc(O)c2c1=O` (stereo not drawn) [Compound 6a]: the IC50 in the assay on CK2α′ [1], in the assay on CK2α [2], on CK2α′2β2 [3], in the assay with CK2α′ [4], with CK2α [5] and against CK2α′2β2 [6] was over 40 µM in each case. Besides, the IC50 at CK2α2β2 [7] and against CK2α2β2 [8] was over 40 µM throughout. For the same molecule, the “IC50 CK2α′2β2, P2B” value against CK2α′2β2 [6] was “without any inhibition”. The “IC50 CK2α2β2, P2B” value on CK2α2β2 [7] is “without any inhibition”.

Take `COc1c(-c2ccc(O)cc2)oc2cc(OC3OC(C(=O)O)C(O)C(O)C3O)cc(O)c2c1=O` (stereo not drawn) [Compound 6b]: the IC50 with CK2α′ [1] is 3 ± 0.2 µM; in the assay with CK2α [2], over 40 µM; against CK2α′2β2 [3] it was 5.3 ± 0.3 µM; in the assay on CK2α′ [4] it was 7.7 ± 0.8 µM; in the assay with CK2α [5], over 40 µM; against CK2α′2β2 [6] it was 3.5 ± 0.1 µM. Moreover, the IC50 at CK2α2β2 [7] worked out at 9.9 ± 0.8 µM; at CK2α2β2 [8], 5 ± 0.2 µM.

For `COC(=O)C1OC(Oc2cc(O)c3c(=O)c(OC)c(-c4ccc(O)cc4)oc3c2)C(O)C(O)C1O` (stereo not drawn) [Compound 6c, isokaempferide 7-O-methylglucuronide], the IC50 with CK2α′ [1] is over 40 µM; in the assay on CK2α [2], 17 ± 1.8 µM; against CK2α′2β2 [3], over 40 µM; in the assay on CK2α′ [4], over 40 µM; with CK2α [5], over 40 µM; on CK2α′2β2 [6], over 40 µM. Further, the IC50 at CK2α2β2 [7] and at CK2α2β2 [8] was over 40 µM throughout. Further, the “IC50 CK2α′2β2, P2B” value at CK2α′2β2 [6] is “without any inhibition”. In addition, at CK2α2β2 [7], the “IC50 CK2α2β2, P2B” value is given as “without any inhibition”.

`O=c1c(OC2OC(CO)C(O)C(O)C2O)c(-c2ccc(O)cc2)oc2cc(O)cc(O)c12` (stereo not drawn) [Compound 7a]: the IC50 in the assay with CK2α′ [1], in the assay with CK2α [2], at CK2α′2β2 [3], in the assay with CK2α′ [4], with CK2α [5] and against CK2α′2β2 [6] was over 40 µM each time. The IC50 at CK2α2β2 [7] and against CK2α2β2 [8] was over 40 µM each time.

As for `O=c1c(O[C@@H]2O[C@H](CO)[C@@H](O)[C@H](O)[C@H]2O)c(-c2ccc(O)c(O)c2)oc2cc(O)cc(O)c12` [Compound 8a, quercetin 3-O-glucoside], the IC50 in the assay on CK2α′ [1] was 19.2 ± 1.5 µM; with CK2α [2] it was 3.7 ± 0.4 µM; against CK2α′2β2 [3] it was over 40 µM; in the assay with CK2α′ [4], over 40 µM; in the assay on CK2α [5] it was over 40 µM; on CK2α′2β2 [6], 31.9 ± 2.6 µM. Also, the results for the IC50 at CK2α2β2 [7] and against CK2α2β2 [8] were 24.5 ± 1.7 µM and over 40 µM, respectively.

Regarding `O=C(O)[C@H]1O[C@@H](Oc2cc3oc(-c4ccc(O)cc4)cc(=O)c3c(O)c2O)[C@H](O)[C@@H](O)[C@@H]1O` [Compound 9, Scutellarin], the IC50 with CK2α′ [1] was 4.3 ± 0.3 µM; in the assay with CK2α [2], over 40 µM; against CK2α′2β2 [3] it was 9.7 ± 0.8 µM; with CK2α′ [4], 4.1 ± 0.5 µM; in the assay on CK2α [5], 33 ± 2.8 µM; on CK2α′2β2 [6] it was over 40 µM. The results for the IC50 against CK2α2β2 [7] and on CK2α2β2 [8] were over 40 µM and 19.1 ± 1.7 µM, respectively. In addition, the “stronger influence on CK2α′ than on the derived holoenzyme” value in the assay on CK2α′ [9] is recorded as 2.5 fold.

As for `O=c1cc(-c2ccc(O)cc2)oc2cc(OC3OC(CO)C(O)C(O)C3O)c(O)c(O)c12` (stereo not drawn) [Compound 9a, scutellarein 7-O-glucoside], the IC50 in the assay with CK2α′ [1] was 3.8 ± 0.2 µM; in the assay with CK2α [2] it was 3 ± 0.4 µM; against CK2α′2β2 [3], 3.2 ± 0.2 µM; in the assay with CK2α′ [4] it was 4.4 ± 0.5 µM; in the assay with CK2α [5], over 40 µM; on CK2α′2β2 [6], 6.3 ± 0.5 µM. The IC50 worked out at 0.4 ± 0.06 µM against CK2α2β2 [7] and 5.4 ± 0.3 µM at CK2α2β2 [8].

Take `O=C1/C(=C/c2ccc(O)c(O)c2)Oc2cc(O)cc(O[C@@H]3O[C@H](CO)[C@@H](O)[C@H](O)[C@H]3O)c21` [Compound 10, cernuoside]: the concentration for half-maximal inhibition (IC50) is 5.1 ± 0.3 µM with CK2α′ [1]; 5.3 ± 0.5 µM in the assay on CK2α [2]; 9.6 ± 0.8 µM against CK2α′2β2 [3]; 4 ± 0.3 µM in the assay on CK2α′ [4]; 5.8 ± 0.4 µM with CK2α [5]; 7.8 ± 0.7 µM against CK2α′2β2 [6]. Further, the IC50 against CK2α2β2 [7] was 3.7 ± 0.3 µM; at CK2α2β2 [8], 5.1 ± 0.3 µM. In the assay on CK2α′ [9], the “stronger influence on CK2α′ than on the derived holoenzyme” value is 2.5 fold.
